According to patent US10716807B2, “Method of treating relapsing-remitting multiple sclerosis using arsenic trioxide” (Medsenic, priority 2017, dated 2020):
“Also recorded” adds a separate entry of the source.

Columns and labels:
MOG35-55-induced EAE = assay: MOG35-55-induced prophylactic/therapeutic EAE model; format: in vivo, C57BL/6 mice; details: for EAE disease severity compared to the vehicle group / EAE onset compared to the vehicle group: started 7 days before EAE induction
Protocol: The study objective was to evaluate the effects of arsenic trioxide (1 mg/ml), administered i.v., QD, starting 7 days before EAE induction, on EAE development in the MOG35-55-induced prophylactic/therapeutic EAE model, known as the more robust and direct animal model to trigger and observe the autoimmune cascade involving the central nervous system and ensuing demyelination.
EAE was induced by MOG35-55/CFA immunization and pertussis toxin injection in C57BL/6 mice.
There were 2 experimental groups with 12 mice per group. Mice were treated prophylactically.
The study used a total of 24 female C57BL/6 mice (Taconic Farms, 10 weeks old).
EAE was induced in all mice as follows:
Day 0, Hour 0—Immunization with MOG35-55/CFA
Day 0, Hour 2—Injection of pertussis toxin
Day 1, Hour 0—2nd injection of pertussis toxin (24 hours after initial immunization)
Mice were injected subcutaneously at two sites in the back with the emulsion component (containing MOG35-55) of Hooke Kit™ […] Emulsion PTX, catalog number EK-2110 (Hooke Laboratories, Lawrence Mass.). One site of injection was in the area of upper back, approximately 1 cm caudal of the neck line. The second site was in the area of lower back, approximately 2 cm cranial of the base of the tail. The injection volume was 0.1 mL at each site.
Within 2 hours of the injection of emulsion, and then again 24 hours after the injection of emulsion, the pertussis toxin component of the kit was administered intraperitoneally. The volume of each injection was 0.1 mL.
To optimize disease severity for this particular study, the pertussis toxin was administered at 165 ng/dose for the first injection and 154 ng/dose for the second injection.
There were 2 groups of 12 mice each.
Mice were assigned to groups 7 days before immunization (Day −7), balanced to achieve similar weight at the start of the study.
Treatment was according to Table 1 below.
Dosing of all mice was at the same time (+/−1 hour) on each day.
Dosing of all mice started on Day −7 (7 days before EAE induction) and continued until Day 27.
Group 2 was dosed at 2 mg/kg from Day −7 to Day −1, and at 3 mg/kg until Day 27.
Mice were scored for EAE and weighed until Day 35, the last day of the study.
Readouts were EAE scores and body weight at the end of the study.
Mice were scored daily from Day 7 after immunization until the end of the study, and body weight was measured three times/week (Monday, Wednesday and Friday), starting on Day −7.
Scoring was performed blind, by a person unaware of both treatment and of previous scores for each mouse.
EAE was scored on scale 0 to 5: • 0 No obvious changes in motor functions of the mouse in comparison to non-immunized mice. • When picked up by the tail, the tail has tension and is erect. Hind legs are usually spread apart. When the mouse is walking, there is no gait or head tilting. • 1 Limp tail. • When the mouse is picked up by the tail, instead of being erect, the whole tail drapes over finger. • 2 Limp tail and weakness of hind legs. • When mouse is picked up by tail, legs are not spread apart, but held closer together. When the mouse is observed walking, it has a clearly apparent wobbly walk. • 3 Limp tail and complete paralysis of hind legs (most common). • OR • Limp tail with paralysis of one front and one hind leg. • OR • ALL of: • Severe head tilting, • Walking only along the edges of the cage, • Pushing against the cage wall, • Spinning when picked up by the tail. • 4 Limp tail, complete hind leg and partial front leg paralysis. • Mouse is minimally moving around the cage but appears alert and feeding. • Usually, euthanasia is recommended after the mouse scores level 4 for 2 days. When the mouse is euthanized because of severe paralysis, score of 5 is entered for that mouse for the rest of the experiment. • 5 Complete hind and complete front leg paralysis, no movement around the cage. • OR • Mouse is spontaneously rolling in the cage. • OR • Mouse is found dead due to paralysis. […]

IL-6 = assay: Cytokine production in spleen cell cultures after MOG35-55/CFA immunization (cytokine bead assay); format: in vivo, mice; details: spleen cells collected 11 days after immunization, cultured 72 hours with MOG35-55 (0, 0.7, 2.2, 6.7 and 20.0 μg/mL); treatment from Day -16
Protocol: The objective of this study was to determine the effects of arsenic trioxide on cytokine production by T lymphocytes from draining lymph nodes and spleen after immunization with MOG35-55/CFA.
There were 2 experimental groups with 6 mice/group.
Treatment started on Day −16.
Mice were immunized with MOG35-55/CFA on Day 0.
Eleven days after immunization, mice were euthanized, spleens and lymph nodes collected and cell suspensions prepared. Cell suspensions were cultured for 3 days in the presence of multiple concentrations of MOG35-55. The culture supernatants were collected at the end of this 3-day culture period. The concentrations of 7 cytokines (IL-2, IL-4, IL-6, IL-10, IL-17A, TNF, and IFN-γ) were determined in the culture supernatants using Th1/Th2/Th17 cytokine bead assay (CBA) kit from Becton Dickinson.

[1] = 3 mg/kg, i.v., QD, listed as Arsenic trioxide
[2] = to Day 28 (end of treatment), 3 mg/kg, i.v., QD

arsenic trioxide
Body weight compared to the vehicle treated controls (MOG35-55-induced EAE; 3 mg/kg, i.v., QD): higher body weight | EAE disease severity compared to the vehicle group (MOG35-55-induced EAE; 3 mg/kg, i.v., QD): overall severity was lower; also recorded: reducing disease severity | EAE onset compared to the vehicle group (MOG35-55-induced EAE; 3 mg/kg, i.v., QD): disease onset was postponed; also recorded: efficacious at postponing EAE onset | EAE disease severity compared to the vehicle group (MOG35-55-induced EAE; [1]): reducing disease severity | EAE onset compared to the vehicle group (MOG35-55-induced EAE; [1]): efficacious at postponing EAE onset | Efficacy after the treatment was stopped (MOG35-55-induced EAE; 7 days after the treatment was stopped (Day 35)): efficacy was maintained 7 days after the treatment was stopped | Day 27 % body weight +/- SD (MOG35-55-induced EAE; Day 27, 3 mg/kg, i.v., QD): 97.3 +/− 5.1% | End % body weight +/- SD (MOG35-55-induced EAE; Day 35 (end of study), 3 mg/kg, i.v., QD): 93.2 +/− 6.4% | Deaths in group (MOG35-55-induced EAE; group of 12 mice, 3 mg/kg, i.v., QD, death not from EAE nor from i.v. dosing complications): One mouse died | EAE incidence (%) (MOG35-55-induced EAE; to Day 28 (end of treatment), 2 mg/kg Day -7 to -1, then 3 mg/kg to Day 27, i.v., QD): 100% | Mean day of onset +/- SEM (sick mice) (MOG35-55-induced EAE; [2]): 17.5 ± 1.1 days | Median day of onset (all mice) (MOG35-55-induced EAE; [2]): 17.0 days | MMS +/- SD (mean maximum score) (MOG35-55-induced EAE; to Day 28 (end of treatment), EAE scale 0 to 5, 3 mg/kg, i.v., QD): 3.41 +/− 0.30 | IL-6 concentration in spleen cell cultures (IL-6): significant reduction of IL-6 concentration
